Entries after “also recorded” stand apart in the source; their conditions may differ.
Columns and labels:
[1] = system: Phosphorylated tau aggregates; experiment: Tau immunohistochemistry; format: in vivo, mouse; parameters: key to Phosphorylated tau aggregates: − = not present; + = present; conditions: for Phosphorylated tau aggregates: SG-fed
Procedure: Slide-mounted lumbar and thoracic spinal cord and brain sections were first rinsed for 45 minutes in 3 changes of PBS then quenched in 3% H2O2 in PBST (PBS+0.5% Triton X-100) for 10 minutes. The slides were rinsed for 4 minutes in 2 changes of PBST. The MOM mouse Ig blocking reagent was prepared as per the manufacturer's instructions. Two drops of mouse Ig stock solution was added to 2.5 mL of PBS. The sections were incubated with this solution for 1 hour at RT. Following this step, sections were rinsed for 4 minutes in 2 changes of PBST and incubated (5 minutes) with the MOM diluent solution prepared by adding 600 V1 of MOM protein concentrate to 7.5 mL of PBS. The diluent was tipped off the slides and replaced by a solution comprised of primary phospho-Tau antibody diluted at 1:100 in the diluent solution prepared in the same manner as discussed above. The sections were incubated for 60 minutes at RT. Subsequently, sections were rinsed for 4 minutes in 2 changes of PBST and incubated for 10 minutes in the MOM biotinylated anti-mouse IgG reagent (10 V1 of MOM biotinylated anti-mouse IgG diluted in 2.5 mL of the MOM diluents). The sections were then rinsed in PBST and incubated (1 hour at RT) with the secondary antibody prepared by combining one drop of secondary antibody (biotinylated goat-anti-rabbit IgG) from the Vectastain ABC Elite kit (Vector Laboratories, Burlingame, Calif., USA) was combined with 3 drops of serum stock to 10 mL of PBST. At 30 minutes after start of slide incubation with the secondary antibody, an immunoperoxidase solution was prepared by adding 2 drops of reagent A and 2 drops of reagent B (Vectastain Elite ABC kit, Vector Laboratories, Burlingame, Calif., USA) to 2.5 mL of PBST. After one hour incubation of the slides with the secondary antibody solution, the slides were rinsed for 4 minutes in two changes of PBST and incubated for 30 minutes in the working immunoperoxidase solution. Next, the sections were rinsed for 4 minutes in 2 changes of PBST. During the rinses, the DAB liquid substrate was prepared for the next step. As per manufacturer's instructions, 2 drops of buffer stock solution, 5 mL of ddH2O, 4 drops of DAB stock solution, and 2 drops of hydrogen peroxide solution were combined. The slides were incubated for 3 minutes at RT with this DAB solution and monitored for color development. The sections were rinsed for 5 minutes in ddH2O to stop the reaction and rid slides of DAB substrate. A methyl green nuclear counterstain was used to elucidate nuclei and motor neuron somata. The 0.5% methyl green counterstain was prepared in the following manner: First, the sodium acetate buffer was prepared with 1.36 g of sodium acetate trihydrate to 100 mL of distilled water adjusted to pH 4.2 using glacial acetic acid. For every 100 mL of buffer, 0.5 g of methyl green (ethyl violet, Sigma-Aldrich, Oakville, ON, Canada) was added to make a 0.5% methyl green solution. Slide-mounted sections were stained in the above methyl green solution for 5 minutes at RT. Sections were rinsed in distilled water, until the water became clear. […]
The numbers of immunoreactive somata or inclusions were counted across the ventral horn of the spinal cord, across brain hemispheres, or per dorsal or ventral root with the 40× objective lens in a 600 μm/600 μm area within region perimeters defined by a mouse brain atlas (2001). […]

[2] = system: male CD-1 mice; experiment: Wire hang test, SG-fed mice; format: in vivo, mouse
Source text: Five-month old male CD-1 mice (30.1-35.7 g, 7.5 cm-8.8 cm) were purchased from Charles River (Wilmington, Mass.). Adult mice were chosen to mimic the mean age of onset of ALS-PDC (Kurland, L. T. (1988a) Trends Neurosci. 11, 51-4; Kurland, L. T., et al. (1994) Amyotrophic lateral sclerosis-parkinsonism-dementia complex on Guam: epidemiologic and etiological perspectives. 109-131). Thirty mice for the SG study were randomly divided into 2 groups (14 control and 16 experimental animals). All animals were housed singly in a virus-free barrier facility in a room maintained at 22° C. under a 12 hour light/dark cycle. The mice were provided ad libitum access to food and water.
The synthetic SG was mixed with finely ground Purina Chow mouse pellets (Mouse Diet™, Purina) to create the experimental pellets with a SG content of 1000 μg per pellet. Dry materials were blended with a sterile silicon spatula. For every 5 g of standard feed, 2.5 mL of doubly-distilled water (dd)H2O was added and the dough was kneaded and round up into pellets. A single sterol glucoside containing pellet was placed in the feeding tray each morning before the addition of regular mouse chow (ad libitum). All experimental pellets were entirely consumed by the mice each day. Control mice were fed standard mouse chow pellets of identical weight with no additives. SG feeding was conducted daily for 15 weeks and mice were behaviorally monitored until sacrifice at 35 weeks (time point 1) or 52 weeks (time point 2).
Wire hang: Neuromuscular strength was tested by the wire hang (or hanging wire) test (Wilson, J., et al. (2003d) Neuromolecular Med. 3, 105-18; Wilson, J. M., et al. (2004c) Neuroimage. 23, 336-43; Wilson, J. M., et al. (2005) Soc Neurosci. Abstr. online; Tabata, R. C., et al. (2008) Neuromolecular Med. 10, 24-39). Both balance and grip strength are required for a mouse to keep its body suspended (Crawley, 2000). […] The latency to fall off the wire (maximum 60 seconds) (Sango et al., 1996) was measured from the moment the wire apparatus was inverted (180°). […]

CC[C@H](/C=C/[C@@H](C)[C@H]1CC[C@H]2[C@@H]3CC=C4C[C@@H](O[C@@H]5O[C@H](CO)[C@@H](O)[C@H](O)[C@H]5O)CC[C@]4(C)[C@H]3CC[C@]12C)C(C)C [SG, Stigmasterol β-D-Glucopyranoside]
Apoptosis of phosphorylated-tau containing cells ([1]; SG-fed animals at 52 weeks): majority of the phosphorylated-tau containing cells were actively undergoing apoptosis
Phosphorylated tau aggregates ([1]; Time-point 1 (35 wk)): −
Phosphorylated tau aggregates ([1]; Time-point 2 (52 wk)): +
Phosphorylated tau aggregates, incidence in SG-fed group ([1]; Time-point 2 (52 wk)): 2/8
Accumulation of phosphorylated tau ([1]; ventral horn of lumbar spinal cord, SG-fed mice, none in non-treated mice): induced accumulation of phosphorylated tau; also recorded: Phosphorylated Tau aggregates were observed
Increase in the time between inversion of the apparatus and falling ([2]; SG fed mice, control group showed an increase): did not
Wirehang ([2]; SG-fed vs control, Time-point 2 (52 wk)): Wirehang* (*p < 0.05)
Wirehang performance ([2]; SG-fed vs control, prior to 35 weeks): decline in performance
